The target in one assay is T1, GSG2 (Homo sapiens, UniProt Q8TF76).
T1 construct: Recombinant protein domains (bromodomain or kinases) at a concentration of 2 μM
T1 sequence (Q8TF76 484-798 limits assumed): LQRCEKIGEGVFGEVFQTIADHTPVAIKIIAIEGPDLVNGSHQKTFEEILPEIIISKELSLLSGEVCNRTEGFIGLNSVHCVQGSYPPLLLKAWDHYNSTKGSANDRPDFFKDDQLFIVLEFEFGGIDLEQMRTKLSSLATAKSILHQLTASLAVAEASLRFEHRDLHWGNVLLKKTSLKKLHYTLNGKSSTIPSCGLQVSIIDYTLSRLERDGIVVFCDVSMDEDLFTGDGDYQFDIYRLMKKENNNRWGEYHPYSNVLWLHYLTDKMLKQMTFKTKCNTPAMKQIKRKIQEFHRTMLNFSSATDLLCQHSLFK
The assay is described as follows: Temperature shift assay (protein kinases). In kind it is binding. To be noted: 10 μM probe; average of three measurements. The procedure:
(§1) Temperature shift assays have been described by Fedorov et al.[46]. Recombinant protein domains (bromodomain or kinases) at a concentration of 2 μM in 10 mM HEPES, pH 7.5, and 500 mM NaCl were mixed with 10 μM of chemical probes. Temperature-dependent protein unfolding profiles were measured using a Real-Time PCR Mx3005p machine (Stratagene).

For a further assay, the target named is T2, BRAF (Homo sapiens, UniProt P15056).
T2 construct: Recombinant protein domains (bromodomain or kinases) at a concentration of 2 μM
T2 sequence (P15056 457-717 limits assumed, species assumed): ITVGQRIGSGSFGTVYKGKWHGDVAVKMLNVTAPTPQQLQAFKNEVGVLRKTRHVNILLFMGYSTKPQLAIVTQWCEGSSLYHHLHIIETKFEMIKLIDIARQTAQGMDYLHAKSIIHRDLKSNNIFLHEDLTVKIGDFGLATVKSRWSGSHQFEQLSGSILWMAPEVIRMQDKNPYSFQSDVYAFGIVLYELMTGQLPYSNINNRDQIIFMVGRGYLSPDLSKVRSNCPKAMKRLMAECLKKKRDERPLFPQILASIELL
The experiment in a line: Temperature shift assay (protein kinases). In kind it is binding. To be noted: 10 μM probe; average of three measurements. The procedure:
as §1

A further assay concerns the target T3, STK3 (Homo sapiens, UniProt Q13188).
T3 construct: Recombinant protein domains (bromodomain or kinases) at a concentration of 2 μM
T3 sequence (Q13188 27-278 limits assumed): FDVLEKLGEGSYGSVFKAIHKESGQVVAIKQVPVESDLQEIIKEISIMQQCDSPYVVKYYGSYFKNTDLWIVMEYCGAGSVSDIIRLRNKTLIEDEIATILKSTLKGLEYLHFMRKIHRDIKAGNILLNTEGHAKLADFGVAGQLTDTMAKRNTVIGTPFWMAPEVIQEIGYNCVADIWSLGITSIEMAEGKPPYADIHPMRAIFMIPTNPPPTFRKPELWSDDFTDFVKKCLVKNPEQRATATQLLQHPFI
The experiment in a line: Temperature shift assay (protein kinases). In kind it is binding. To be noted: 10 μM probe; average of three measurements. The protocol: as §1

For a further assay, the system named is RPS6KA1. The experiment in a line: Temperature shift assay (protein kinases). It counts as binding. To be noted: 10 μM probe; average of three measurements. The procedure:
as §1

A further assay addresses T4, AURKB (Homo sapiens, UniProt Q96GD4).
T4 construct: Recombinant protein domains (bromodomain or kinases) at a concentration of 2 μM
The experiment in a line: Temperature shift assay (protein kinases). In kind it is binding. To be noted: 10 μM probe; average of three measurements. The procedure:
as §1

For another assay, the target named is T5, PAK4 (Homo sapiens, UniProt O96013).
T5 construct: Recombinant protein domains (bromodomain or kinases) at a concentration of 2 μM
T5 sequence (O96013 321-572 limits assumed, species assumed): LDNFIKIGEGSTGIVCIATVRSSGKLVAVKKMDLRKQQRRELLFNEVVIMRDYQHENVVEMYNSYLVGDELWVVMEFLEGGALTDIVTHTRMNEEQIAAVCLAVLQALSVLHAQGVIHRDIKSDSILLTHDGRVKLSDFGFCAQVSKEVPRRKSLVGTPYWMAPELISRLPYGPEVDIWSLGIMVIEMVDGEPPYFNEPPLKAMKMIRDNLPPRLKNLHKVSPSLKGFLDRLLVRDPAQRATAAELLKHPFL
The assay is described as follows: Temperature shift assay (protein kinases). It counts as binding. To be noted: 10 μM probe; average of three measurements. The protocol:
as §1

In a further assay the target is T6, MAPK8 (Homo sapiens, UniProt P45983).
T6 construct: Recombinant protein domains (bromodomain or kinases) at a concentration of 2 μM
T6 sequence (P45983 26-321 limits assumed, species assumed): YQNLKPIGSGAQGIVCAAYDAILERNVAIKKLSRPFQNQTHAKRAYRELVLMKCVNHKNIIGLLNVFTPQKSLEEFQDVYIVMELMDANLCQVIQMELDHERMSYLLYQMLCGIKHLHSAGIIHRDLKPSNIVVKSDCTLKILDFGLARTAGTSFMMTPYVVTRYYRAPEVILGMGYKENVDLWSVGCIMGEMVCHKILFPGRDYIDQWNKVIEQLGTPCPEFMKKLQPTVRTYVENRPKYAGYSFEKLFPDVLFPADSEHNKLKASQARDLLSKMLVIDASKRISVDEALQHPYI
The experiment in a line: Temperature shift assay (protein kinases). It counts as binding. To be noted: 10 μM probe; average of three measurements. The protocol:
as §1

A further assay addresses T7, FES (Homo sapiens, UniProt P07332).
T7 construct: Recombinant protein domains (bromodomain or kinases) at a concentration of 2 μM
The experiment in a line: Temperature shift assay (protein kinases). It counts as binding. To be noted: 10 μM probe; average of three measurements. The protocol: as §1

A further assay deals with T8, DYRK1A (Homo sapiens, UniProt Q13627).
T8 construct: Recombinant protein domains (bromodomain or kinases) at a concentration of 2 μM
The experiment in a line: Temperature shift assay (protein kinases). In kind it is binding. To be noted: 10 μM probe; average of three measurements. The protocol:
as §1

The target in another assay is T9, PHGK2 (Homo sapiens, UniProt P15735).
T9 construct: Recombinant protein domains (bromodomain or kinases) at a concentration of 2 μM
T9 sequence (P15735 24-291 limits assumed): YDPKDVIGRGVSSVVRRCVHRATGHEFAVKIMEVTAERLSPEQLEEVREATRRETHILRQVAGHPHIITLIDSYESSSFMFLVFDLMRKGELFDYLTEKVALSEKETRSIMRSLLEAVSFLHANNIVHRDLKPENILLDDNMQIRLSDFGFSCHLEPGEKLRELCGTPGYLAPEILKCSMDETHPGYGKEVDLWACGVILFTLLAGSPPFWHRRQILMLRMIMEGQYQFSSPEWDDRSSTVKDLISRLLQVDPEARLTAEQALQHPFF
The assay is described as follows: Temperature shift assay (protein kinases). In kind it is binding. To be noted: 10 μM probe; average of three measurements. The protocol:
as §1

For a further assay, the target named is T10, MAPK1 (Homo sapiens, UniProt P28482).
T10 construct: Recombinant protein domains (bromodomain or kinases) at a concentration of 2 μM
T10 sequence (P28482 25-313 limits assumed, species assumed): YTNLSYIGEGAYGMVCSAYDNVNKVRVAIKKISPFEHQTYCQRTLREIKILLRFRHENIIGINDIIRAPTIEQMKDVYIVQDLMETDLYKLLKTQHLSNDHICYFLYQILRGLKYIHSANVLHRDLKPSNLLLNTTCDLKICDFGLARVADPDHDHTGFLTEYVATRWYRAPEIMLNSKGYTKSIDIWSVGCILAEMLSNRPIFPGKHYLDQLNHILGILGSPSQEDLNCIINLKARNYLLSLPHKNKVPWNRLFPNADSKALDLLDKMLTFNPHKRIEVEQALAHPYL
The experiment in a line: Temperature shift assay (protein kinases). In kind it is binding. To be noted: 10 μM probe; average of three measurements. The procedure:
as §1

For a further assay, the target named is T11, CASK (Homo sapiens, UniProt O14936).
T11 construct: Recombinant protein domains (bromodomain or kinases) at a concentration of 2 μM
T11 sequence (O14936 12-276 limits assumed): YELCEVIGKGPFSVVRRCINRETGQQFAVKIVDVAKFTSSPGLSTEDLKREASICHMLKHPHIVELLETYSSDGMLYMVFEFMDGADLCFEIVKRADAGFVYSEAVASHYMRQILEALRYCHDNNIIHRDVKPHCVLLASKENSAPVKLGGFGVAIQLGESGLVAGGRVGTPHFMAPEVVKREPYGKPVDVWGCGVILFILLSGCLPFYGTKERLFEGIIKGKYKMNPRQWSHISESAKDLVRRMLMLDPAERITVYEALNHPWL
The experiment in a line: Temperature shift assay (protein kinases). It counts as binding. To be noted: 10 μM probe; average of three measurements. The protocol:
as §1

The next assay deals with T12, DAPK3 (Homo sapiens, UniProt O43293).
T12 construct: Recombinant protein domains (bromodomain or kinases) at a concentration of 2 μM
T12 sequence (O43293 13-275 limits assumed, species assumed): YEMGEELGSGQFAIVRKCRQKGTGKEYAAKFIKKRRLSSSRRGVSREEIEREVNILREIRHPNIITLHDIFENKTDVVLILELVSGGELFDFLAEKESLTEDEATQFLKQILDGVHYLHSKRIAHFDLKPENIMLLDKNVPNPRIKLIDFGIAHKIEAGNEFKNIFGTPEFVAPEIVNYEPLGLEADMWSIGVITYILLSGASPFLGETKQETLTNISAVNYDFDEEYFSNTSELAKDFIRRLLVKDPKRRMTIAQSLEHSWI
The assay is described as follows: Temperature shift assay (protein kinases). To be noted: 10 μM probe; average of three measurements. It counts as binding. The procedure: as §1

The next assay has as its target T13, BAZ1B (Homo sapiens, UniProt Q9UIG0).
T13 sequence (Q9UIG0 1339-1443 limits assumed): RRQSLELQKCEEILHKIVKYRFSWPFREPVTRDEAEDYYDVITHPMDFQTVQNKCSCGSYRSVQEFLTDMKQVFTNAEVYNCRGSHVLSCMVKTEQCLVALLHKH
The experiment in a line: BROMOscan ligand-binding assay.

[1] abbreviates: KD (BROMOscan), sheet prints no unit (nM).
Setting [2] is: KD, BROMOscan Gene Symbol BAZ1B.

The structures appear in SMILES notation. Some results are limits rather than exact numbers.

As usually defined, the Kd is the equilibrium constant for the complex coming apart. A higher Kd goes with a looser complex.

T7 sequence (P07332 561-822 limits assumed, species assumed): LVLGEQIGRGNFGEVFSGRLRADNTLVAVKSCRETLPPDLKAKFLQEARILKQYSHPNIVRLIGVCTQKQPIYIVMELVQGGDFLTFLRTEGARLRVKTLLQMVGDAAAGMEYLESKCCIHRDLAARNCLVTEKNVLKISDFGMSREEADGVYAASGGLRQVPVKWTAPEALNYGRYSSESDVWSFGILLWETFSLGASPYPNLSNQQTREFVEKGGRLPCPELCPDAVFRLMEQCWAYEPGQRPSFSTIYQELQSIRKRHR
T4 sequence (Q96GD4 77-327 limits assumed, species assumed): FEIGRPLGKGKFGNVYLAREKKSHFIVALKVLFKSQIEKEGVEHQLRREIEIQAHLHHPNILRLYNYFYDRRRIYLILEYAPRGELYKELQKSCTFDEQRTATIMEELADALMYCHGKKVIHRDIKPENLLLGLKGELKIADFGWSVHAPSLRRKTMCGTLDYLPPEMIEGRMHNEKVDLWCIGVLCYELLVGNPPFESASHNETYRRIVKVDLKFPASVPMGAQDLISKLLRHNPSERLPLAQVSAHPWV
Text for BAZ1B: BROMOscan is a binding assay based on the well-known KINOMEscan technology. This assay measures the binding of a DNA-tagged bromodomain to an immobilized BRD ligand. If an inhibitor is present, it will compete with the bromodomain binding to the immobilized ligand, resulting in reduction of a quantitative PCR (qPCR) signal in a dose-dependent manner.

As to `Cc1cc2c(cc1N1C(=O)c3cccc4c(CCCO)ccc(c34)C1=O)n(C)c(=O)n2C` [BAY-299], the Temperature shift at GSG2 is given as 0.1 Kelvin; on BRAF it was 0.1 Kelvin; at STK3 it was 0.1 Kelvin; with RPS6KA1, 0.1 Kelvin; at AURKB it was 0.2 Kelvin; on PAK4, -0.1 Kelvin. The Temperature shift on MAPK8 is listed as -0.4 Kelvin; at FES, 0.0 Kelvin; at DYRK1A, -0.5 Kelvin; at PHGK2, 0.0 Kelvin; at MAPK1, 0.0 Kelvin; at CASK it was -0.1 Kelvin. In addition, at DAPK3, the Temperature shift is -0.2 Kelvin.

As to `CCCOc1ccn2c(C(C)=O)cc(-c3ccccc3S(C)(=O)=O)c2c1` [GSK2801], the figures for the Kd on BAZ1B (setting [1]) and on BAZ1B (setting [2]) were > 30000 nM and > 100000 nM, respectively.

For the compound `CCC(=O)N1CCOc2c(cc(-c3ccc(OC)c(OC)c3)cc2OCC2CCCN(C)C2)C1` (stereo not drawn) [I-CBP112], the Kd on BAZ1B (setting [1]) is > 30000 nM; at BAZ1B (setting [2]) it was > 100000 nM. Further, the Temperature shift on GSG2 is recorded as 0.1 Kelvin; on BRAF it was -0.1 Kelvin; at STK3 it was 0.0 Kelvin; in the assay with RPS6KA1 it was 0.1 Kelvin; on AURKB, 0.3 Kelvin; on PAK4, -0.2 Kelvin. Moreover, the Temperature shift at MAPK8 was 0.3 Kelvin; on FES, -0.1 Kelvin; on DYRK1A, -0.4 Kelvin; on PHGK2, 0.1 Kelvin; on MAPK1, 0.2 Kelvin; at CASK, 0.0 Kelvin. The Temperature shift at DAPK3 came to 0.0 Kelvin.

Take `Cc1nnc2c3ccccc3c(N[C@@H](C)[C@H](c3ccccc3)N(C)C)nn12` [L-Moses]: the Temperature shift on GSG2 was 0.1 Kelvin; on BRAF, -0.1 Kelvin; at STK3, 0.0 Kelvin; in the assay on RPS6KA1, 0.2 Kelvin; on AURKB, 0.4 Kelvin; on PAK4, -0.3 Kelvin. Further, the Temperature shift is 0.6 Kelvin at MAPK8; -0.2 Kelvin on FES; 0.2 Kelvin at DYRK1A; -0.1 Kelvin at PHGK2; 0.1 Kelvin at MAPK1; -0.1 Kelvin on CASK. On DAPK3, the Temperature shift was 0.2 Kelvin.

Take `O=C(C=CN1CC2CC1CN2c1ccccn1)c1ccccc1O` (stereo not drawn) [PFI-3]: the Kd on BAZ1B (setting [1]) is > 30000 nM; on BAZ1B (KD, BAZ1B), > 100000 nM.

Take `COc1ccc(CCc2nc3cc(-c4c(C)noc4C)ccc3n2C[C@H](C)N2CCOCC2)cc1Cl` [SGC-CBP30]: the Kd is > 30000 nM at BAZ1B (setting [1]) and > 100000 nM at BAZ1B (KD, BROMOscan, BAZ1B).

With `O=C(O)c1ccccc1O` [Salicylic Acid], the Kd at BAZ1B (KD, BAZ1B) is > 1.4e+07 nM.

(Values after PMC6478789, “A chemical toolbox for the study of bromodomains and epigenetic signaling” (Nature Communications, 2019).)
